Consider seven compounds from patent publication US20020137162A1, “Antisense oligonucleotide inhibition of specific histone deacetylase isoforms” (priority 2000, published 2002).

d = 2'-deoxy (DNA); m = 2'-O-methyl

Data set [1] deals with cyclin B1. The data set is described as follows: Western blot of cyclin B1 in A549 cells. The data set is classed as cell-based, human. Conditions: 48 hours. As to the method:
(§1) Human cancer A549 cells were treated with AS1, AS2 or MM oligo directed human HDAC1 for 48 hours. Total cell lysates were harvested and analyzed by Western blot using antibodies against human HDAC1, cyclin Bl, cyclin A and actin (all from Santa Cruz Biotechnology, Inc., Santa Cruz, Calif.).
(In general: Immunoblotting shows a protein as a band on a membrane.)

In data set [2] the test system is T24. The data set is described as follows: Apoptosis, Cell Death Detection ELISA. In kind it is cell-based, human. Conditions: fold over non-specific background, TSA at 100 ng/ml. As to the method:
(§2) In order to determine the effect of HDAC OSDNs on cell growth and cell death through apoptosis, A549 or T24 cells, MDAmb231 cells, and HMEC cells (ATCC, Manassas, Va.) were treated with HDAC OSDNs as previously described.
(§3) For the apoptosis study, cells were analyzed using the Cell Death Detection ELISA ^PLUSkit (Roche Diagnostic GmBH, Mannheim, Germany) according to the manufacturer's directions. Typically, 10,000 cells were plated in 96-well tissue culture dishes for 2 hours before harvest and lysis. Each sample was analyzed in duplicate. ELISA reading was done using a MR700 plate reader (DYNEX Technology, Ashford, Middlesex, England) at 410 nm. The reference was set at 490 nm.
In general terms: An ELISA detects its analyte on a solid surface through an enzyme-linked reagent.

The test system of data set [3] is HMEC. The data set is described as follows: Apoptosis, Cell Death Detection ELISA. The data set is classed as cell-based, human. The note with it: fold over non-specific background, TSA at 100 ng/ml. As to the method:
as §2, §3

The subject of data set [4] is A549. The data set is described as follows: Apoptosis, Cell Death Detection ELISA. The note with it: fold over non-specific background, TSA at 100 ng/ml. The data set is classed as cell-based, human. As to the method: as §2, §3
Data set [5] deals with human HDAC-1. The data set is described as follows: Antisense ODN screen, HDAC-1 RNA expression by Northern blot in T24 cells. The data set is classed as cell-based. The note with it: 100 nM, 24 hours. On the procedure:
(§4) Briefly, human A549 and/or T24 human bladder carcinoma cells were seeded in 10 cm tissue culture dishes one day prior to oligonucleotide treatment. The cell lines were obtained from the American Type Culture Collection (ATCC) (Manassas, Va.) and were grown under the recommended culture conditions. Before the addition of the oligonucleotides, cells were washed with PBS (phosphate buffered saline). Next, lipofectin transfection reagent (GIBCO BRL Mississauga, Ontario, Calif.), at a concentration of 6.25 μg/ml, was added to serum free OPTIMEM medium (GIBCO BRL, Rockville, Md.), which was then added to the cells. The oligonucleotides to be screened were then added directly to the cells (i.e., one oligonucleotide per plate of cells). Mismatched oligonucleotides were used as controls. The same concentration of oligonucleotide (e.g., 50 nM) was used per plate of cells for each oligonucleotide tested.
Cells were harvested, and total RNAs were analyzed by Northern blot analysis. Briefly, total RNA was extracted using RNeasy miniprep columns (QIAGEN). Ten to twenty gg of total RNA was run on a formaldehyde-containing 1% agarose gel with 0.5 M sodium phosphate (pH 7.0) as the buffer system. RNAs were then transferred to nitrocellulose membranes and hybridized with the indicated radiolabeled DNA probes. Autoradiography was performed using conventional procedures.

Data set [6] relates to cyclin A. The data set is described as follows: Western blot of cyclin A in A549 cells. In kind it is cell-based, human. The note with it: 48 hours. On the procedure: as §1
Data set [7] concerns human HDAC-5. The data set is described as follows: Antisense ODN screen, HDAC-5 RNA, T24 cells. The data set is classed as cell-based. Conditions: 100 nM, 24 hours, Northern blot. On the procedure:
Thirteen phosphorothioate ODNs containing sequences complementary to the 5′ or 3′ untranslated regions of the human HDAC-5 gene (GenBank Accession No. AF039691) were screened as above.
as §4
(§5) Cells were harvested, and total RNAs were analyzed by Northern blot analysis. Briefly, total RNA was extracted using RNeasy miniprep columns (QIAGEN). Ten to twenty gg of total RNA was run on a formaldehyde-containing 1% agarose gel with 0.5 M sodium phosphate (pH 7.0) as the buffer system. […]

For data set [8], the system named is human HDAC-7. The data set is described as follows: Antisense ODN screen, HDAC-7 RNA, T24 cells. In kind it is cell-based. The note with it: 100 nM, 24 hours, Northern blot. As to the method:
Eighteen phosphorothioate ODNs containing sequences complementary to the 5′ or 3′ untranslated regions of the human HDAC-7 gene (GenBank Accession No. AF239243) were screened as above.
as §4, §5

The test system of data set [9] is human HDAC-2. The data set is described as follows: Antisense ODN screen, HDAC-2 RNA, T24 cells. In kind it is cell-based. Conditions: 100 nM, 24 hours, Northern blot. On the procedure:
Twenty-four phosphorothioate ODNs containing sequences complementary to the 5′ or 3′ UTR of the human HDAC-2 gene (GenBank Accession No. U31814) were screened as above. […] HDAC-2 MM was created as a control; compared to the antisense oligo, it contains a 7-base mismatch.
as §4
(§6) Cells were harvested, and total RNAs were analyzed by Northern blot analysis. Briefly, total RNA was extracted using RNeasy miniprep columns (QIAGEN). […]

For data set [10], the system named is MDAmb231. The data set is described as follows: Apoptosis, Cell Death Detection ELISA. The data set is classed as cell-based, human. Conditions: fold over non-specific background, TSA at 100 ng/ml. As to the method:
as §2, §3

Data set [11] relates to A549 cells. The data set is described as follows: Growth in soft agar, colony count. The data set is classed as cell-based, human. The note with it: colonies counted after three weeks. On the procedure:
1.3 g granulated agar (DIDFCO) was added to 100 ml deionized water and boiled in a microwave to sterilize. The boiled agar was held at 55 C until further use. Iscove's Modified Dulbecco×s Medium (GIBCO/BRL), 100× Penicillin-Streptomycin-Glutamine (GIBCO/BRL) and fetal bovine serum (medicorp) were pre-warmed at 37 C. To 50 ml sterile tubes was added 9 ml Isove's medium, 2 ml fetal bovine serum and 0.2 ml 100× Pen-Strep-Gln. Then 9 ml 55 C 1.3% agar was added to each tube. The tube contents were mixed immediately, avoiding air bubbles, and 2.5 ml of the mixture was poured into each sterile 6 cm petri dish to form a polymerized bottom layer. Dishes with polymerized bottom layers were then put in a CO2 incubator at 37 C until further use. In 50 ml sterile tubes were prewarmed at 37 C for each 4 cell lines/samples, 20 ml Iscove's medium, 0.4 ml 100× Pen-Strep-Gln and 8 ml fetal bovine serum. Cells were trypsinized and counted by trypan blue staining and 20,000 cells were aliquotted into a sterile 15 ml tube. To the tube was then added DMEM with low glucose (GIBCO/BRL)+10% fetal bovine serum+Pen-Strep-Gln to a final volume of 1 ml. To the prewarmed 37 C mix in the 50 ml tube was quickly added 8 ml 55 C 1.3% agar, which was then mixed well. […] Plates were wrapped up in foil paper and incubated in a CO2 incubator at 37° C. for three weeks, at which time colonies in agar are counted.

Data set [12] has as its system human cancer cells. The data set is described as follows: Cell growth and apoptosis, summary for cancer cells. In kind it is cell-based. The note with it: summary of Table 3. On the procedure: as §2, §3
(§7) Cells were harvested and cell numbers counted by trypan blue exclusion using a hemocytometer. Percentage of inhibition was calculated as (100—AS cell numbers/control cell numbers) %.

Data set [13] relates to HDAC-2 protein. The data set is described as follows: Western blot of HDAC isotype protein expression in A549 cells, HDAC-2. The data set is classed as cell-based, human. The note with it: 50 nM, 48 hours. As to the method:
OSDN treatment conditions were as previously described.
Cells were lysed in buffer containing 1% Triton X-100, 0.5% sodium deoxycholate, 5 mM EDTA, 25 mM Tris-HC1, pH 7.5, plus protease inhibitors. Total protein was quantified by the protein assay reagent from Bio-Rad (Hercules, Calif.). 100 ug of total protein was analyzed by SDS-PAGE. Next, total protein was transferred onto a PVDF membrane and probed with various HDAC-specific primary antibodies. Rabbit anti-HDAC-1 (H-51), anti-HDAC-2 (H-54) antibodies (Santa Cruz Biotechnologies, Santa Cruz, Calif.) were used at 1:500 dilution. Rabbit anti-HDAC-3 antibody (Sigma, St. Louis, Mo.) was used at a dilution of 1:1000. Anti-HDAC-4 antibody was prepared as previously described (Wang, S. H. et al., (1999) Mol. Cell. Biol. 19:7816-27), and was used at a dilution of 1:1000. Anti-HDAC-6 antibody was raised by immunizing rabbits with a GST fusion protein containing a fragment of HDAC-6 protein (amino acid #990 to #1216, GenBank Accession No. AAD29048). Rabbit antiserum was tested and found only to react specifically to the human HDAC-6 isoform. HDAC-6 antiserum was used at 1:500 dilution in Western blots to detect HDAC-6 in total cell lysates. Horse Radish Peroxidase conjugated secondary antibody was used at a dilution of 1:5000 to detect primary antibody binding. […]

Data set [14] concerns MDAmb231. The data set is described as follows: Cell growth inhibition, trypan blue cell count. The data set is classed as cell-based, human. Conditions: MDAmb231 cancer cells, 50 nM, 72 hours. On the procedure:
as §2, §7

The subject of data set [15] is murine erythroleukemia cells. The note with it: Yoshida et al, Cancer Research 47: 3688-3691 (1987); cited from earlier work.
In data set [16] the test system is mammalian HDAC. The note with it: Yoshida et al., J. Biol. Chem 265: 17174-17179 (1990); cited from earlier work.
Data set [17] deals with human HDAC-4. The data set is described as follows: Antisense ODN screen, HDAC-4 RNA, T24 cells. Conditions: 100 nM, 24 hours, Northern blot. In kind it is cell-based. As to the method:
Seventeen phosphorothioate ODNs containing sequences complementary to the 5′ or 3′ UTR of the human HDAC-4 gene (GenBank Accession No. AB006626) were screened as above. […] HDAC-4 MM1 and MM2 oligonucleotides were created as controls; compared to the antisense oligonucleotides, they each contain a 6-base mismatch.
as §4, §6

On to “5′-GAAACGTGAGGGACTCAGCA-3′ (chemistry not given here) [HDAC-1 AS1]”, for which the “expression of cyclin B1” value in data set [1] is “repress expression”. The “Apoptosis After 48 Hour Treatment” value in data set [2] was “− (“−”: <= 2x fold over non-specific background)”; in data set [3] it was “− (“−”: <= 2x fold over non-specific background)”; in [4] it was “+ (“+”: 2-3X fold)”. Further, the “antisense activity to human HDAC-1 (HDAC-1 RNA expression)” value in data set [5] is reported as “antisense activity”. In data set [6], the “expression of cyclin A” value is “repress expression”.
With “5′-CTTCGGTCTCACCTGCTTGG-3′ (sugars from the 5' end m4 d12 m4, all phosphorothioate, methylation of C and T or U not given here) [HDAC-5 AS]”, the “antisense activity to human HDAC-5” value in data set [7] is “antisense activity”.
As for “5′-CTTCAGCCAGGATGCCCACA-3′ (sugars from the 5' end m4 d12 m4, all phosphorothioate, methylation of C and T or U not given here) [HDAC-7 AS]”, in data set [8], the “antisense activity to human HDAC-7” value is recorded as “antisense activity”.
On to “5′-GGAAGCCAGAGCTGGAGAGG-3′ (chemistry not given here) [HDAC-1 AS2]”, for which, in data set [1], the “expression of cyclin B1” value is “repress expression”. Also, the “antisense activity to human HDAC-1 (HDAC-1 RNA expression)” value in [5] is “antisense activity”. Also, in data set [6], the “expression of cyclin A” value is “repress expression”.
“5′-GCTGAGCTGTTCTGATTTGG-3′ (chemistry not given here) [HDAC-2 AS]”: in data set [9], the “antisense activity to human HDAC-2” value is “antisense activity”. Besides, the “Apoptosis After 48 Hour Treatment” value in data set [2], in data set [3], in data set [4] and in data set [10] was “− (“−”: <= 2x fold over non-specific background)” throughout. The “growth of A549 cells in soft agar” value in data set [11] is “do not”. Besides, in data set [12], the “cancer cell growth inhibition” value is listed as “minimal effect”. The HDAC-2 protein expression result in data set [13] is reported as “specifically inhibits”. The “Growth Inhibition (AS vs. MM)” value in data set [14] was “− (“−”: no inhibition)”.
For `CC(/C=C/C(=O)NO)=C\[C@@H](C)C(=O)c1ccc(N(C)C)cc1` [TSA, (R)-Trichostatin A, reference compound], the “induction of differentiation in murine erythroleukemia cells” value in data set [15] was “potent inducer of differentiation”. The “Apoptosis After 48 Hour Treatment” value in [2] was “++ (“++”: 3-5X fold)”; in [3], “+ (“+”: 2-3X fold)”; in data set [4], “++ (“++”: 3-5X fold)”; in data set [10], “++ (“++”: 3-5X fold)”. The “inhibition of mammalian HDAC” value in [16] is given as “potent inhibitor”.
For 5′-TACAGTCCATGCAACCTCCA-3′ [HDAC-4 AS2], the “antisense activity to human HDAC-4” value in data set [17] is “antisense activity”.
